A word on the CC50: it is the concentration that lowers cell viability or growth by half. A lower CC50 goes with harm at low concentration. In general, inhibition refers to the drop in the measured response relative to a control, in per cent.

Series [1] has as its system SARS-CoV-2 Omicron BA.1. The experiment in a line: microbe, parasite or virus in culture. The settings on record: for inhibition of SARS-CoV-2 Omicron, dsRNA and nucleocapsids as indicators of viral load: Omicron BA.1, at the concentrations tested; for potency compared with Alotaketal C: dependence on R4 chirality; for SI (selectivity index): CC50 / EC50 BA.1. It counts as cell-based.

The nature of series [2]: Cytotoxicity assay, PrestoBlue cell viability. It counts as cell-based. Particulars: human; concentration required to reduce cell viability by 50%, Calu-3 cells, 48-hr incubation. On the procedure: Calu-3 cells were seeded with 10^4 cells/well in 96-well plates. Twenty-four hr after seeding media was aspirated and serially diluted compounds (described above) were added for an additional 48-hr. incubation. Cellular viability was assessed with Presto Blue Cell Viability Assay™ (Thermo Fisher Scientific™) according to the manufacturer's instructions. Cells were incubated with 5% PrestoBlue™ reagent for 2 hr before reading on the SpectraMax Gemini™ XS spectrofluorometer (Molecular Devices, LLC.™) set at excitation and emission wavelengths of 555 and 585 nm, respectively. Cellular viability was expressed relative (%) to vehicle-treated cells. Data are from at least three independent experiments.

For series [3], the system named is SARS-CoV-2 VIDO. The experiment in a line: SARS-CoV-2 VIDO infection of Calu-3 cells, nucleocapsid and dsRNA staining. It counts as cell-based. Particulars: Severe acute respiratory syndrome coronavirus 2, 3 hr pretreatment.
In series [4] the test system is proteins Kinase C (PKC). Particulars: Wang 2016; cited from earlier work.
Series [5] relates to SARS-CoV-2 Omicron BA.2. The experiment in a line: microbe, parasite or virus in culture. Type of series: cell-based. Particulars: Severe acute respiratory syndrome coronavirus 2, Calu-3 cells.
The subject of series [6] is SARS-CoV-2 Omicron BA.5. The experiment in a line: microbe, parasite or virus in culture. It counts as cell-based. The settings on record: Severe acute respiratory syndrome coronavirus 2, Calu-3 cells.
The subject of series [7] is SARS-CoV-2 Delta B.1.617.2. The experiment in a line: microbe, parasite or virus in culture. Type of series: cell-based.
In series [8] the test system is mNG-SARS-CoV-2. The experiment in a line: in vitro. The settings on record: human.
Series [9] deals with mNG-SARS-CoV-2. The experiment in a line: microbe, parasite or virus in culture.
Series [10] concerns mNG-SARS-CoV-2. It counts as cell-based. Particulars: Huh7.5.1 cells pretreated 3 hours with serial dilutions.
[11] abbreviates: Severe acute respiratory syndrome coronavirus 2, Calu-3, read-out: EC50 BA.1.

Structures are written as SMILES. Read-outs that look alike come from different tables or passages of the source. Bounds are passed on as bounds.

`CC(C)=CCC(C)CCCC1CCC[C@]2(C=C(CO)[C@H]3CC(=O)C(C)=C[C@H]3O2)O1` (stereo in doubt) [Compound I10-Cit3, (2S,4aR,6′R,8aR)-6′-(4,7-dimethyloct-6-en-1-yl)-4-(hydroxymethyl)-7-methyl-3′,4a,4′,5′,6′,8a-hexahydrospiro[chromene-2,2′-pyran]-6(5H)-one]: in series [1], the “SARS-COV-2 Activity” value is on record as “no” and the “potency compared with Alotaketal C” value was “decreased”. In addition, the “inhibition of SARS-CoV-2 Omicron, dsRNA and nucleocapsids as indicators of viral load” value (from here on “inhibition of SARS-CoV-2 Omicron”) in series [1] (Calu-3 cells) was “no inhibition activity”. This molecule also gave a cytotoxic concentration (CC50) at 48 h in series [2] of at least 100 µM.

On to `CC(C)=CCC(C)CCCC1CCC[C@]2(C=C(CO)[C@H]3CC(=O)C(C)=C[C@H]3O2)O1` (stereo in doubt) [Compound I10-Cit4, (2S,4aR,6'S,8aR)-6′-(4,7-dimethyloct-6-en-1-yl)-4-(hydroxymethyl)-7-methyl-3′,4a,4′,5′,6′,8a-hexahydrospiro[chromene-2,2′-pyran]-6(5H)-one], for which, in series [1], the “SARS-COV-2 Activity” value is “yes” and the “SI (selectivity index)” value amounted to 50872. In series [1] (Calu-3 cells), the “inhibition of SARS-CoV-2 Omicron” value was “good inhibition”. Further, the EC50 in series [1] (setting [11]) was 0.25 µM. In series [2], this molecule returned a cytotoxic concentration (CC50) at 48 h of at least 12700 µM.

As to `CC(=O)O[C@]1(C)C[C@@H](/C=C(\C)CCC=C(C)C)O[C@@]2(C=C(CO)[C@H]3CC(=O)C(C)=C[C@H]3O2)C1` [Alotaketal C], the EC50 in [3] (dsRNA marker, read-out: dsRNA EC50, VIDO) is 1.33 µM; in [3] (nucleocapsid marker, read-out: Nucleocapsid EC50, VIDO), 1.44 µM; in series [1] (setting [11]) it was 0.55 µM; in [1] (Severe acute respiratory syndrome coronavirus 2, Calu-3 cells, dsRNA marker, read-out: dsRNA (EC50), Omicron BA.1), 0.4 µM; in series [1] (Severe acute respiratory syndrome coronavirus 2, Calu-3 cells, nucleocapsid marker, read-out: Nucleocapsid (EC50), Omicron BA.1), 0.7 µM; in series [5] (dsRNA marker, read-out: dsRNA (EC50), Omicron BA.2) it was 0.7 µM. The EC50 in series [5] (nucleocapsid marker, read-out: Nucleocapsid (EC50), Omicron BA.2) was 0.7 µM; in [6] (dsRNA marker, read-out: dsRNA (EC50), Omicron BA.5), 0.7 µM; in [6] (nucleocapsid marker, read-out: Nucleocapsid (EC50), Omicron BA.5), 0.3 µM; in series [7] (Calu-3 cells, dsRNA marker, read-out: dsRNA (EC50), Delta B.1.617.2) it was 3.9 µM; in [7] (Calu-3 cells, nucleocapsid marker, read-out: Nucleocapsid (EC50), Delta B.1.617.2) it was 4.9 µM; in series [7] (Severe acute respiratory syndrome coronavirus 2, Calu-3, Calu-3 cells, dsRNA marker, read-out: dsRNA (EC50), Delta B.1.617.2) it was 3.96 µM. Moreover, the EC50 came out at 4.89 µM in [7] (Severe acute respiratory syndrome coronavirus 2, Calu-3, Calu-3 cells, nucleocapsid marker, read-out: Nucleocapsid (EC50), Delta B.1.617.2); 0.11 µM in series [9] (Severe acute respiratory syndrome coronavirus 2, Calu-3, read-out: EC50, inhibition of mNG-SARS-CoV-2 infection); 0.08 µM in series [9] (Severe acute respiratory syndrome coronavirus 2, Calu-3, read-out: EC50, secondary screening of hits). For the same molecule, the “SARS-COV-2 Activity” value in series [1] is given as “yes”. The “SI (selectivity index)” value in series [1] came to 181.8. Also, in series [4], the “activation of protein kinase C” value is given as “activates”. The molecule further came in with a CC50 at 48 h in series [2] of at least 100 µM. Also, the selectivity ratio in series [8] was found to be 850. Moreover, in series [9] (Severe acute respiratory syndrome coronavirus 2, Calu-3, read-out: inhibition of SARS-CoV-2 infection), the inhibition at 50 µM is 90.6%.

With `CCCCCCCCCCCC[C@@H]1CCC[C@]2(C=C(CO)[C@H]3CC(=O)C(C)=C[C@H]3O2)O1` [Compound I10-DD2, (2S,4aR,6′R,8aR)-4-(hydroxymethyl)-7-methyl-6′-dodecyl-3′,4a,4′,5′,6′,8a-hexahydrospiro[chromene-2,2′-pyran]-6(5H)-one], in series [1], the “SARS-COV-2 Activity” value is listed as “yes” and the “SI (selectivity index)” value turned out to be 56.7. In addition, in [1] (Calu-3 cells), the “inhibition of SARS-CoV-2 Omicron” value is recorded as “good inhibition”. The EC50 in series [1] (setting [11]) was 2 µM. Also, in [2], the CC50 at 48 h is at least 113 µM.

As to `CCCCCCCCCC[C@H]1CCC[C@]2(C=C(CO)[C@H]3CC(=O)C(C)=C[C@H]3O2)O1` [Compound I10-Dec01, (2S,4aR,6'S,8aR)-4-(hydroxymethyl)-7-methyl-6′-decyl-3′,4a,4′,5′,6′,8a-hexahydrospiro[chromene-2,2′-pyran]-6(5H)-one], in series [1], the “SARS-COV-2 Activity” value is given as “no” and the “potency compared with Alotaketal C” value is “decreased”. Moreover, the “inhibition of SARS-CoV-2 Omicron” value in series [1] (Calu-3 cells) was “no inhibition activity”. Further, the 50% cytotoxic concentration (CC50) at 48 h in series [2] was at least 339 µM.

With `CCCCCCCCCC[C@@H]1CCC[C@]2(C=C(CO)[C@H]3CC(=O)C(C)=C[C@H]3O2)O1` [Compound I10-Dec02, (2S,4aR,6′R,8aR)-4-(hydroxymethyl)-7-methyl-6′-decyl-3′,4a,4′,5′,6′,8a-hexahydrospiro [chromene-2, 2′-pyran]-6 (5H)-one], in [1], the “SARS-COV-2 Activity” value is “yes” and the “SI (selectivity index)” value was 297.2. Further, the “inhibition of SARS-CoV-2 Omicron” value in series [1] (Calu-3 cells) is “good inhibition”. Also, in series [1] (setting [11]), the EC50 is 0.25 µM. Half-maximal cytotoxicity in series [2] (CC50 at 48 h) was put at 74.3 µM.

Turning to `CC1=C[C@H]2O[C@]3(C=C(CO)[C@H]2CC1=O)CCCCO3` [Compound I10-H, (2S,4aR,8aR)-4-(hydroxymethyl)-7-methyl-3′,4a,4′,5′,6′,8a-hexahydrospiro[chromene-2,2′-pyran]-6(5H)-one], in series [1], the “SARS-COV-2 Activity” value is “no” and the “potency compared with Alotaketal C” value was “decreased”. For the same molecule, the “inhibition of SARS-CoV-2 Omicron” value in series [1] (Calu-3 cells) was “no inhibition activity”. The same molecule gave a CC50 at 48 h in series [2] of at least 100 µM.

As for `CCCCCCCC[C@@H]1CCC[C@]2(C=C(CO)[C@H]3CC(=O)C(C)=C[C@H]3O2)O1` [Compound I10-Oct, (2S,4aR,6′R,8aR)-4-(hydroxymethyl)-7-methyl-6′-octyl-3′,4a,4′,5′,6′,8a-hexahydrospiro[chromene-2,2′-pyran]-6(5H)-one], in series [1], the “SARS-COV-2 Activity” value is listed as “yes” and the “SI (selectivity index)” value was 100.6. Besides, the “inhibition of SARS-CoV-2 Omicron” value in series [1] (Calu-3 cells) is “good inhibition”. Further, in series [1] (setting [11]), the EC50 turned out to be 1 µM. The same molecule registered a cytotoxic concentration (CC50) at 48 h in [2] of at least 101 µM.

Consider `CC(C)C[C@H](NC(=O)OCc1ccccc1)C(=O)N[C@@H](C[C@@H]1CCNC1=O)C(O)S(=O)(=O)[O-].[Na+]` (stereo partly drawn) [GC376], for which, in series [10], the “reduction of mNG-SARS-CoV-2 infection” value is “dose-dependent reduction”.
